In US6806230B1, “Pyrimidine derivatives and herbicides containing them” (Kumiai Chemical Industry Co., Ltd., priority 1999, dated 2004):

What was measured:
Format in all cases: in vivo
[1] = test system: barnyard grass (Eo); assay: Test Example 1: herbicidal effects by flooded paddy field treatment; set-up: herbicidal effects, Eo (barnyard grass):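 0-5 growth inhibition grade; 5 = over 90%; 4 = 70-90%; 3 = 50-70%; 2 = 30-50%; 1 = 10-30%; 0 = under 10%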; conditions: for herbicidal effects, Eo (barnyard grass): dose 100 g active ingredient per 10 ares, examined on the 21st day after treatment, standards of Table 44; for Herbicidal effect index, Eo: dose 100 gai/10a, examined on 21st day after treatment, index 0-5 per Table 44;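 on Herbicidal effect index, Eo: 0-5 growth inhibition grade; 5 = over 90%; 4 = 70-90%; 3 = 50-70%; 2 = 30-50%; 1 = 10-30%; 0 = under 10%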
Description: (§1) In a 100 cm^2 plastic pot, paddy field soil was filled and paddled. Then, seeds of barnyard grass (Eo) and monochoria (Mo) were sown, and water was introduced to a depth of 3 cm. Next day, a wettable powder prepared in accordance with Formulation Example 1 was diluted with water and dropwise applied to the water surface. The dose was 100 g of the active ingredient per 10 ares. Thereafter, cultivation was carried out in a green house, and on the 21st day after the treatment, the herbicidal effects were examined in accordance with the standards as identified in Table 44.

[2] = test system: barnyard grass (Ec); assay: Test Example 2: herbicidal effects by upland soil treatment; set-up: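 0-5 growth inhibition grade; 5 = over 90%; 4 = 70-90%; 3 = 50-70%; 2 = 30-50%; 1 = 10-30%; 0 = under 10%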; conditions: dose 100 g active ingredient per 10 ares, examined on the 21st day after treatment
Description: In a 80 cm^2 plastic pot, upland soil was filled, and seeds of barnyard grass (Ec) and green foxtail (Se) were sown and covered with soil. A wettable powder prepared in accordance with Formulation Example 1 was diluted with water and uniformly applied to the soil surface by means of a small size spray at a rate of 100 l per 10 ares, so that the dose of the active ingredient would be 100 g per 10 ares. Thereafter, cultivation was carried out in a green house, and on the 21st day after the treatment, the herbicidal effects were examined in accordance with the standards as identified in Table 44.

[3] = test system: monochoria (Mo); assay: Test Example 1: herbicidal effects by flooded paddy field treatment; set-up: herbicidal effects, Mo (monochoria):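 0-5 growth inhibition grade; 5 = over 90%; 4 = 70-90%; 3 = 50-70%; 2 = 30-50%; 1 = 10-30%; 0 = under 10%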; conditions: for herbicidal effects, Mo (monochoria): dose 100 g active ingredient per 10 ares, examined on the 21st day after treatment, standards of Table 44; for Herbicidal effect index, Mo: dose 100 gai/10a, examined on 21st day after treatment, index 0-5 per Table 44;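 on Herbicidal effect index, Mo: 0-5 growth inhibition grade; 5 = over 90%; 4 = 70-90%; 3 = 50-70%; 2 = 30-50%; 1 = 10-30%; 0 = under 10%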
Description: as §1

| SMILES | herbicidal effects, Eo (barnyard grass) [1] | Ec (herbicidal effects, index) [2] | herbicidal effects, Mo (monochoria) [3] | Herbicidal effect index, Eo [1] | Herbicidal effect index, Mo [3] |
| --- | --- | --- | --- | --- | --- |
| CCC(C)C(c1cncnc1C(F)(F)F)N(C)C(=O)Cc1ccc(C(F)(F)F)cc1 (mixture of isomers) [1-307] | 5 | 5 | 5 |  |  |
| CC(NC(=O)N(C)C(c1cncnc1C(F)(F)F)C(C)C)c1ccccc1 (mixture of isomers) [1-535] | 5 | 5 | 5 |  |  |
| C#CCN(C(=O)C(C)c1ccccc1)C(c1cncnc1CC)C(C)C (mixture of isomers) [1-562] | 5 | 5 | 5 |  |  |
| COC(OC)c1ncncc1C(C(C)C)N(C)C(=O)C(C)c1ccc(Cl)cc1 (mixture of isomers) [1-625] |  | 4 |  |  |  |
| CSC(C(=O)N(C)C(c1cncnc1C(F)(F)F)C(C)C)c1ccc(Cl)cc1 (mixture of isomers) [Compound 1-154] | 5 |  | 5 |  |  |
| CC(C)C(c1cncnc1C(F)(F)F)N(C)C(=O)Oc1ccc(Cl)cc1 (racemic) [1-178] | 5 |  | 4 |  |  |
| CC(C)C(c1cncnc1C(F)(F)Cl)N(C)C(=O)Oc1ccc(F)cc1 (racemic) [1-184] | 5 |  | 5 |  |  |
| CC(C)C(c1cncnc1C(F)(F)Cl)N(C)C(=O)Oc1ccc(Cl)cc1 (racemic) [1-185] | 5 |  | 5 |  |  |
| Cc1ccc(CC(=O)N(C)C(C)c2cncnc2C(C)(C)C)cc1 (racemic) [1-191] | 5 |  | 5 |  |  |
| CN(C(=O)Cc1ccc(C(F)(F)F)cc1)C(c1cncnc1C(F)(F)F)C(C)(C)C (racemic) [1-305] | 5 | 5 | 5 |  |  |
| CC(C)c1ncncc1C(C(C)C)N(C)C(=O)Cc1ccc(C(F)(F)F)cc1 (racemic) [1-310] | 5 | 5 | 5 |  |  |
| CC(C)C(c1cncnc1-c1ccccc1)N(C)C(=O)Cc1ccccc1 (racemic) [1-322] | 5 |  | 5 |  |  |
| CC(C)C(c1cncnc1-c1ccccc1)N(C)C(=O)Cc1ccc(F)cc1 (racemic) [1-323] | 5 | 4 | 5 |  |  |
| CC(C)c1ncncc1C(C(C)C)N(C)C(=O)Nc1ccccc1 (racemic) [1-326] |  | 4 |  |  |  |
| CC(C)c1ncncc1C(C(C)C)N(C)C(=O)N(C)c1ccccc1 (racemic) [1-327] | 5 | 5 | 5 |  |  |
| CC(C)C(c1cncnc1C(F)(F)F)N(C)C(=O)C(=O)c1ccccc1 (racemic) [1-328] | 5 | 5 | 5 |  |  |
| CON(C(=O)Cc1ccccc1)C(c1cncnc1C(F)(F)F)C(C)C (racemic) [1-332] |  | 5 |  |  |  |
| CC(C)C(c1cncnc1C(F)(F)F)N(C)C(=O)C(=O)c1ccc(Cl)cc1 (racemic) [1-335] | 5 | 5 | 5 |  |  |
| CSCC(c1cncnc1C(F)(F)F)N(C)C(=O)Cc1ccc(F)cc1 (racemic) [1-413] | 5 |  | 5 |  |  |
| CSCC(c1cncnc1C(F)(F)F)N(C)C(=O)Cc1ccc(Cl)cc1 (racemic) [1-414] | 5 | 4 | 5 |  |  |
| CSCC(c1cncnc1C(F)(F)F)N(C)C(=O)Cc1ccc(Br)cc1 (racemic) [1-415] | 5 |  | 5 |  |  |
| CSCC(c1cncnc1C(F)(F)F)N(C)C(=O)Cc1cccc(F)c1 (racemic) [1-420] | 5 |  | 5 |  |  |
| CSCC(c1cncnc1C(F)(F)F)N(C)C(=O)Cc1ccc(C)cc1 (racemic) [1-421] | 5 |  | 5 |  |  |
| CSCC(c1cncnc1C(F)(F)F)N(C)C(=O)Cc1ccc(Cl)cc1F (racemic) [1-422] | 5 |  | 5 |  |  |
| CC(C)c1ncncc1C(C(C)C)N(C)C(=O)N(C)c1ccc(F)cc1 (racemic) [1-429] | 5 | 5 | 5 |  |  |
| CCc1ncncc1C(C(C)C)N(C)C(=O)Cc1ccc(F)cc1 (racemic) [1-433] | 5 | 5 | 5 |  |  |

| SMILES | herbicidal effects, Eo (barnyard grass) [1] | Ec (herbicidal effects, index) [2] | herbicidal effects, Mo (monochoria) [3] | Herbicidal effect index, Eo [1] | Herbicidal effect index, Mo [3] |
| --- | --- | --- | --- | --- | --- |
| CCC(c1cncnc1C(C)C)N(C)C(=O)Cc1ccc(Cl)cc1 (racemic) [1-438] | 5 | 5 | 5 |  |  |
| CCOC(OCC)C(c1cncnc1C(C)C)N(C)C(=O)OCc1ccccc1 (racemic) [1-458] | 5 | 5 | 5 |  |  |
| COc1ccc(N(C)C(=O)N(C)C(c2cncnc2C(F)(F)F)C(C)C)cc1 (racemic) [1-460] | 5 | 5 | 5 |  |  |
| CON=CC(c1cncnc1C(C)C)N(C)C(=O)OCc1ccccc1 (racemic) [1-466] |  | 4 |  |  |  |
| CCOC(OCC)c1ncncc1C(C(C)C)N(C)C(=O)Cc1ccc(Cl)cc1 (racemic) [1-469] | 5 |  | 5 |  |  |
| CON=Cc1ncncc1C(C(C)C)N(C)C(=O)OCc1ccccc1 (racemic) [1-471] |  | 5 |  |  |  |
| CC(C)C(c1cncnc1C=NO)N(C)C(=O)Cc1ccc(F)cc1 (racemic) [1-501] | 5 |  | 5 |  |  |
| COC(C)(OC)C(c1cncnc1C(C)C)N(C)C(=O)Cc1ccc(F)cc1 (racemic) [1-510] | 5 |  | 5 |  |  |
| CC(C)c1ncncc1C(C=NO)N(C)C(=O)OCc1ccccc1 (racemic) [1-531] |  | 4 |  |  |  |
| C#CCN(C(=O)Cc1ccccc1)C(c1cncnc1CCC)C(C)C (racemic) [1-616] |  | 5 |  |  |  |
| C#CCN(C(=O)Cc1ccc(Cl)cc1)C(c1cncnc1CCC)C(C)C (racemic) [1-618] |  | 5 |  |  |  |
| C#CCN(C(=O)Cc1ccc(F)cc1)C(c1cncnc1C(F)(F)F)C(C)(C)C (racemic) [1-620] |  | 5 |  |  |  |
| C#CCN(C(=O)Cc1ccccc1)C(c1cncnc1C(C)C)C(C)C (racemic) [1-621] |  | 5 |  |  |  |
| C#CCN(C(=O)Cc1ccc(Cl)cc1)C(c1cncnc1C(C)C)C(C)C (racemic) [1-623] |  | 5 |  |  |  |
| Cc1ccc(OC(=O)N(C)C(c2cncnc2C(F)(F)Cl)C(C)C)cc1 (racemic) [1-636] |  | 4 |  |  |  |
| COc1ccc(OC(=O)N(C)C(c2cncnc2C(F)(F)Cl)C(C)C)cc1 (racemic) [1-637] | 5 |  | 5 |  |  |
| CCc1ncncc1C(CC)N(C)C(=O)Oc1ccc(Cl)cc1 (racemic) [1-646] |  | 4 |  |  |  |
| CC(C)C(c1cncnc1C(F)(F)F)N(C)C(=O)Cc1ccncc1 (racemic) [2-5] | 5 |  | 5 |  |  |
| CC(C)C(c1cncnc1C(F)(F)F)N(C)C(=O)Cn1cc(Br)cn1 (racemic) [2-41] | 5 |  | 5 |  |  |
| CC(C)C(c1cncnc1C(F)(F)F)N(C)C(=O)COc1nnc(C(F)(F)F)s1 (racemic) [2-47] |  | 4 |  |  |  |
| CC(C)C(c1cncnc1C(F)(F)Cl)N(C)C(=O)Oc1cccc2ccccc12 (racemic) [2-80] | 5 |  | 4 |  |  |
| CC(C)C(c1cncnc1C(F)(F)Cl)N(C)C(=O)Oc1ccccc1 (racemic) [Compound 1-19] |  |  |  | 5 | 5 |
| CN(C(=O)Cc1ccc(Cl)cc1)C(c1cncnc1C(F)(F)Cl)C1CC1 (racemic) [Compound 1-94] |  |  |  | 5 | 5 |
| CN(C(=O)Cc1ccccc1F)C(c1cncnc1C(F)(F)F)C1CCCC1 (racemic) [Compound 1-156] | 5 |  | 5 |  |  |
| CCOC(=O)c1ncncc1C(C(C)C)N(C)C(=O)C(C)c1ccc(Cl)cc1 (single isomer, unassigned) [1-595] | 5 |  | 5 |  |  |
| CC(C)C(c1cncnc1C=O)N(C)C(=O)Cc1ccc(F)cc1 (centres unmarked) [Compound 1-523, N-[1-(4-formylpyrimidin-5-yl)-2-methylpropyl]-N-methyl-4-fluorophenylacetamide] |  | 4 |  |  |  |
